Data reported in article PMC10508264, “Exploring the antioxidant, antimicrobial, cytotoxic and biothermodynamic properties of novel morpholine derivative bioactive Mn(II), Co(II) and Ni(II) complexes – combined experimental and theoretical measurements towards DNA/BSA/SARS-CoV-2 3CL^Pro” (RSC Medicinal Chemistry, 2023).

Assays:
CT-DNA = assay: DNA binding by viscometric (hydrodynamic) technique
Experimental: The hydrodynamic properties were measured using an Ostwald viscometer with the help of a thermostat (25 ± 0.1 °C). The specific viscosity of DNA was also measured in the presence and absence of the test samples.[13,30]
Generally, when the major/minor groove binding, electrostatic, partial, and non-classical interaction modes are involved between chemical substances and DNA base pairs, the final DNA relative viscosity remains unchanged or undergoes a very negligible change due to reducing the contour length of DNA. When the intercalation binding modes are involved between a chemical substance and DNA base pairs via π–π stacking interactions and hydrophobic forces, an increase in relative viscosity is noted due to a rise in the contour length of DNA. Moreover, for the purpose of observing alterations in the CT-DNA helical structure, the viscosity findings for CT-DNA, various concentrations of chemical substances present, and EtBr were recorded. It was also noted that the absolute viscosity rose consistently along with the incremental concentration of each substance at the fixed DNA concentration. As a result of the strong binding mode of intercalation, the contour length of the double-helix DNA rises.[72] The obtained results are also compared with those of the classical intercalator (EB). The affinity interaction and their slope values were observed from the relative specific viscosity (η/η0)^1/3 plotted as a straight line contrasting [compound]/[DNA] and absolute specific viscosity of DNA in the presence or absence of chemical substances was evaluated using eqn (11) (Table 3). In the experiment, it was clearly noted that the slope values for all samples increased due to the rising binding affinity. The evaluated slopes were in the following sequence: (EB) 1.215 > (2) 0.860 > (3) 0.801 > (1) 0.662 > (HL) 0.490 (Fig. S21 ^† and Table 3). […] Due to the existence of 2,2′-bipyridine and the morpholine-fused aromatic planar systems, compounds can interact with DNA robustly via intercalation. The outcomes agreed with the observed outcomes of electronic absorption spectral characteristics.
11 [drawing 21] where η and η0 represent the specific viscosity of DNA in the presence of the complex and the specific viscosity of DNA alone, t0, tDNA and tcomplex represent the average flow time of the Tris–HCl buffer solution, the average flow time of the DNA alone solution, and the average flow time of DNA interacted with the samples, respectively. Error limit ± 2.5% (P < 0.025). […]
2.2.4. Assessment of DNA affinity by hydrodynamic technique
Hydrodynamic properties were performed using an Ostwald viscometer with the help of a thermostat (25 ± 0.1 °C). The experiment was performed of all samples, including ethidium bromide at various concentrations (20, 40, 60, 80, 100 µM) and each test compound was mixed with the deoxyribonucleic acid solution (100 µM) in the Ostwald viscometer. With a help of digital stopwatch, average flow time was gauged three times for each addition, and the specific viscosity of deoxyribonucleic acid was also measured in the presence and absence of test samples. […]
Also, the emission spectral titration for all compounds was also carried out at a fixed concentration (25 μM) of BSA with an incremental concentration of substances (0–25 µM)

Pseudomonas aeruginosa = assay: Agar disc diffusion, strain D; format: cell-based; parameters: Inhibition%: concentration or dose not given beside the values; conditions: for Diameter of clear zone inhibition: control 6 mm
EB–DNA = EB–DNA competitive fluorescence emission titration; format: binding; conditions: for KSV (SV method I), DNA / Kass (SV method II), DNA / Kq (SV method I), DNA: EB–DNA; for Kq (SV method I), DNA: τ0 = 10^−8 s; for Kapp (apparent binding constant): KEB = 10^7 M^−1 at 50 μM EB; for LWB method KLB: Lineweaver–Burk
Experimental: (§1) Titrations were performed for all tested compounds (1–200 μM) with pre-incubated EB-bound DNA and the intensity variations between 510 nm and 610 nm were carefully monitored in the presence and absence of DNA (200 μM) during the initial emission and excitation by EB.[31]
(§2) Fluorescence emission spectral titration is an efficient approach to evaluating the binding properties of DNA/BSA biomolecules. In general, the fluorescence of EB is quite weak in aqueous solution, but when it is bound to DNA, the fluorescence intensity rises. However, it is a well-known imperative intercalator and is more supportive in distinguishing the binding strength of non-fluorescence test substances. Also, the fluorescence emission spectra of the EB–DNA adduct were examined at 610 nm in the absence and presence of rising quantities of each test compound. When the complex concentration (0–240 μM) rises, the fluorescence intensity of the EB-bound DNA complex diminishes owing to the displacement of EB from CT-DNA. A notable reduction in the fluorescence emission intensity at 610 nm is observed (Fig. S26 ^† and Table 4). The photoelectron shift from DNA's guanine base to the excited states may be the cause of the frequency quenching in the emission of the test substance by DNA. […] Therefore, the competitive binding experiment can make use of EB as a fluorescent probe. […] This is further evidence that complexes (1–3) strongly bind intercalatively with DNA. The observed results agree well with the data from electronic absorption spectral measurements. Additionally, the experiment was extended to examine the binding properties between the test substance and BSA. BSA mostly contains three amino acid residues (tyrosine, tryptophan, and phenylalanine), which give it its inherent fluorescence. […] These two residues also have minimal quenching effects. Tryptophan in BSA fluoresces mostly because of a residue that is trapped inside a hydrophobic cavity. Therefore, it is crucial to model potential binding interactions with the metal complexes. […] The fluorescence intensity also reduces while the test substances (1–3) are steadily blended with the BSA solution, proving that complexes (1–3) interact with BSA via altering the protein's secondary structure, which also leads to an alteration in the tryptophan environment of BSA (Fig. S27 ^†). Furthermore, BSA structural similarities share 76% sequence identity with human serum albumin (HSA), the most prevalent protein in blood plasma that transports ions and proteins to cells and tissues. HSA is able to readily crystallize under the trivalent cations, but BSA has no ready crystallizing property. However, they consist of parallel physicochemical properties to each other.[74,75] Additionally, the Stern–Volmer eqn (12) and (13) were employed to analyze the data (Fig. S28 ^† and Table 4). Additionally, the kq values for DNA and BSA binding were acquired in the range of 1.1636–2.8863 × 10^12 and 2.6390–7.0774 × 10^12 mol^−1 s^−1, respectively. They are also much greater than the collision quenching constant value (2.0 × 10^10 mol^−1 s^−1). Therefore, it is assumed that the static quenching process was brought on by adduct construction between the test compounds and BSA rather than a dynamic collision. However, fluorescence spectroscopy is generally plagued by the inner filter effect (IFE), disturbing spectral analysis. The energizing ray is attenuated due to the highly concentrated solution sample. As a result, strong fluorescence is only seen on surfaces facing the excitation beam.

BSA = BSA (Bos taurus, UniProt P02769); assay: BSA fluorescence quenching titration; format: binding, bovine; conditions: for Gibb's free energy change (SV method II), BSA: T = 298 K; for Kq (SV method I), BSA: τ0 = 10^−8 s; for P, ratio of fluorescence quantum efficiency, BSA: F/F0 vs 1/[BSA]
Experimental: as §1, §2

Escherichia coli = assay: Agar disc diffusion, strain A; format: cell-based; parameters: Inhibition%: concentration or dose not given beside the values; conditions: for Diameter of clear zone inhibition: control (DMSO) 6 mm

SMILES | Slope of (η/η0)^1/3 vs [compound]/[DNA] (CT-DNA) | Relative specific viscosity (η/η0)^1/3 (CT-DNA; [complex]/[DNA] = 0.2) | Relative specific viscosity (η/η0)^1/3 (CT-DNA; [complex]/[DNA] = 0.4) | Relative specific viscosity (η/η0)^1/3 (CT-DNA; [complex]/[DNA] = 0.6) | Relative specific viscosity (η/η0)^1/3 (CT-DNA; [complex]/[DNA] = 0.8) | Relative specific viscosity (η/η0)^1/3 (CT-DNA; [complex]/[DNA] = 1.0) | Inhibition% (Pseudomonas aeruginosa) [%] | Diameter of clear zone inhibition (Pseudomonas aeruginosa) [mm] | Scatchard analysis KSA (EB–DNA) [M⁻¹] | KSV (SV method I), DNA (EB–DNA) [M⁻¹] | Kass (SV method II), DNA (EB–DNA) [M⁻¹] | Kq (SV method I), DNA (EB–DNA) [M⁻¹ s⁻¹] | Kapp (apparent binding constant) (EB–DNA) [M⁻¹] | LWB method KLB (EB–DNA) [M⁻¹] | KSV (SV method I), BSA (BSA) [M⁻¹] | Kass (SV method II), BSA (BSA) [M⁻¹] | n, number of binding sites (SV method II), BSA (BSA) | Gibb's free energy change (SV method II), BSA (BSA) [kJ/M] | Kq (SV method I), BSA (BSA) [M⁻¹ s⁻¹] | P, ratio of fluorescence quantum efficiency, BSA (BSA) | also measured
[Ni+2].[O-]c1ccccc1N=Cc1ccc(N2CCOCC2)cc1.[O-]c1ccccc1N=Cc1ccc(N2CCOCC2)cc1.c1ccc(-c2ccccn2)nc1 [(3)] | 0.801 | 0.71 | 0.86 | 0.92 | 1.11 | 1.31 | 57 | 14 | 32363 | 16879 | 10350 | 1.6879e+12 | 7.34e+06 | 7786 | 48060 | 52920 | 1.051 | -26.9 | 4.8055e+12 | 0.348 | Inhibition% (Escherichia coli): 50%; Diameter of clear zone inhibition (Escherichia coli): 12 mm
Oc1ccccc1N=Cc1ccc(N2CCOCC2)cc1 [(HL), 2-(4-morpholinobenzylideneamino)phenol] | 0.490 | 0.61 | 0.67 | 0.75 | 0.85 | 1.01 | 25 | 08 | 19093 | 11636 | 9606 | 1.1636e+12 | 5.829e+06 | 6985 | 26390 | 10620 | 0.926 | -23.0 | 2.639e+12 | 0.464 | Inhibition% (Escherichia coli): 33%; Diameter of clear zone inhibition (Escherichia coli): 09 mm
